Read-outs that look alike come from different tables or passages of the source.
Assays:
[1] = test system: mouse monoclonal anti-fluorescein antibody (#4-4-20); assay type: binding
Excerpt: Millipolarization data was hand calculated using the above equations as described for the fully automated instrument. Total intensity is not represented in the following tables. Table 48 illustrates the reactivity of PMB-Cys-Fl when reacted with mouse monoclonal anti-fluorescein antibody (#4-4-20) obtained from Edward M. Voss at the University of Illinois Urbana.

[2] = test system: E. coli J5; assay type: cell-based; design: key: −: no agglutination; +: microagglutination; +++: macroagglutination; conditions: for Agglutination by avidin beads: Table 53
Protocol: (§1) 100 ul polystyrene beads (Spherotech […], 5% w/v) were aliquoted to two 1.5 mL microcentrifuge tubes, centrifuged 1 min at 12,000 g in microcentrifuge and washed 2×with 1 ml PBS (vortexed and recentrifuged 1-2 min after each wash). The beads were resuspended in 900 ul PBS, and 100 ul of 1 mg/ml solution of avidin (Sigma) added, and the tubes rotated overnight at room temperature. The beads were pelleted, and washed sequentially as described above with 1 ml PBS, PBS+0.5% tween 20 (PBST), and PBS, and each sample resuspended in 200 ul PBS. The samples were pooled and stored at 4 degrees.
(§2) 20 ul avidin coated beads were aliquoted into 2×1.5 ml microcentrifuge tubes, and non-specifically binding sites blocked by rotating with 1 ml PBS+1% BSA for 1 hr at room temperature. […] The samples were pelleted, and washed with 1 ml PBS, repelleted and resuspended with 20 ul PBS. III Bacterial Agglutination Assays
(§3) 5 ul of each resin was added to 20 ul bacteria (1/10 dilution of a saturated overnight culture) in independant depression wells (2 wells/bacteria tested). The samples were incubated 30 min at 37 degrees, swirled, and agglutination scored. (Note that −=no agglutination, +=microagglutination and +++=macroagglutination)
To determine if free Immunoadaptor™ compounds can also stably bind surface exposed bacterial structures, agglutination assays were performed using bacteria prebound to Immunoadaptor™ compounds. The assay was performed with J5 bacteria, since the agglutination signal (see table above) was the strongest with this strain. 40 ul avidin coated resin was blocked for 1 hr at room temperature with 1 ml PBS+1% BSA, pelleted as described above, and resuspended in 40 ul PBS. […] The following assays were performed:
Incubated 1 hr at 37 degrees in depression well, swirled and agglutination scored.
Incubated 10 min at 37 degrees then added 5 ul avidin coated beads. Incubated 1 hr at 37 degrees in depression well, swirled and agglutination scored.
Incubated 15 min at 37 degrees, pelleted cells by centrifugation, washed with 100 ul PBS (resuspended cells with micropipetter) and repelleted. Cells were resuspended in 80 ul PBS, 20 ul aliquots distributed to depression well, 5 ul avidin coated beads added, and, incubated 1 hr at 37 degrees, swirled and agglutination scored.

[3] = target: avidin and chicken anti-PMB antibody (Gallus gallus, UniProt P02701)
Chain of avidin and chicken anti-PMB antibody (P02701 25-152): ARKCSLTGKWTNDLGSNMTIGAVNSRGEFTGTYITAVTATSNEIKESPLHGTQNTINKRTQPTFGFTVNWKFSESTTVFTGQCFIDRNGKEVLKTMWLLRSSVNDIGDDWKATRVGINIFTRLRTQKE
Protocol: The capture ELISA was performed as described below. […] The coating suspensions were decanted, and all wells were washed three times using PBS+0.5% Tween 20 (PBST). In order to block non-specific binding sites, 100 ul of 1% BSA (Sigma, St. Louis, Mo.) in PBS (blocking solution) was then added to each well, and the plates were incubated for 1 hr. at 37° C.
The blocking solution was decanted, and duplicate samples of 150 ul of either PMB-Cy-Biotin or PMB-Cy-Fl added to the first well of a dilution series. The initial testing concentration of the premixed conjugate was 10 ng/ml in blocking buffer (see above), followed by 5 fold dilutions in blocking buffer. This was accomplished by serially transferring 30 ul aliquots to 120 ul buffer, mixing, and repeating the dilution into a fresh well. After the final dilution, 30 ul was removed from the well such that all wells contained 120 ul final volume. A total of 2 such dilutions were performed. […] Following this incubation, the serially diluted samples were decanted, and the wells were washed six times using PBST (Phosphate-Buffered Saline with Tween). To each well, 100 ul of 1/1000 diluted chicken anti-PMB antibody or chicken preimmune, diluted in blocking buffer was added, and the plate incubated 1 hr at 37° C. The antibody solutions were decanted and the plates were washed as described above. To each well, 100 ul of 1/1000 diluted rabbit anti-chicken IgG alkaline phosphatase (Sigma) diluted in blocking buffer was added, and the plate incubated 1 hr at 37° C. The antibody solutions were decanted and the plates were washed as described above, substituting 50 nM Na2CO3, pH 9.5 for the PBST in the final wash. The plates were developed by the addition of 100 ul of a solution containing 1 mg/ml para-nitro phenyl phosphate (Sigma, St. Louis, Mo.) dissolved in 50 nM Na2CO3, 10 mM MgCl2, pH 9.5 to each well, and incubating the plates at room temperature in the dark overnight. […] Only the ELISA readings from the maximally diluted samples in each dilution series are shown.

[4] = test system: E. coli 0111:B4 bacteria; assay type: binding; conditions: in °C (unit assumed)
[5] = test system: E. coli J5; assay type: cell-based; conditions: Table 40
[6] = test system: J5 bacteria phagocytosed by J774A.1 mouse macrophage cell line; assay type: cell-based
[7] = test system: E. coli 0111: B4; assay type: binding; conditions: bacteria coated at 5.0 ug/ml, washed; no antibody
Protocol: (§4) Staph. aureus and E. coli 0111: B4 were cultured in TSB media at 37 degrees C with shaking. Cells were collected by centrifugation and suspended in 50 mM sodium phosphate buffer, pH 6.8. The cells were again collected by centrifugation and suspended in […] sodium phosphate buffer containing 0.025% sodium azide (buffer).
(§5) The bacteria were diluted with buffer to an absorbance of 1.0 at 620 nm. PMB-Cys-Mal-FL was added to 2.5 ml of each diluted bacterial suspension, to a final concentration of 5.0 ug/ml. The suspensions were incubated at ambient temperature for 5 minutes. The bacteria were collected by centrifugation and suspended in buffer, repeated for a total of three times. The bacteria were then suspended in buffer and Tween 20 detergent was added to a final concentration of 0.1%. The bacteria were again collected by centrifugation and suspended in 1.5 ml buffer without Tween 20.
(§6) The bacteria were diluted 10 fold with buffer and fluorescence was measured in a Sequoia-Turner model 450 Fluorometer using NB490 and SC515 filters with the gain at 5. Mouse monoclonal anti-fluorescein antibody 4-4-20 was added with mixing to the bacterial suspensions. Table 50 summarizes the experimental results.

[8] = test system: Staph. aureus; assay type: binding; conditions: bacteria coated at 5.0 ug/ml, washed
Protocol: as §4, §5, §6

[9] = test system: E. coli 0111:B4
[10] = test system: H16 bacterial strain; assay type: binding; conditions: 1 ug/ml, Extravidin and anti-avidin chase
[11] = test system: Salmonella 34576; assay type: cell-based; design: key: −: no agglutination; +: microagglutination; +++: macroagglutination; conditions: avidin beads loaded with compound
Protocol: as §1, §2, §3

[12] = test system: E. coli HB101; assay type: cell-based; design: key: −: no agglutination; +: microagglutination; +++: macroagglutination; conditions: avidin beads loaded with compound
Protocol: as §1, §2, §3

[13] = test system: E. coli 0111:B4; assay type: cell-based; design: key: −: no agglutination; +: microagglutination; +++: macroagglutination; conditions: avidin beads loaded with compound
Protocol: as §1, §2, §3

polymyxin B—cystiene—Maleimamide—fluorescein [PMB-Cys-Mal-FL]
mP ([1]; PMB-Cys-Mal-FL 10^−7 M alone): 32.5
mP ([1]; antibody 5 × 10^-8 M & PMB-Cys-Mal-FL 10^-7 M): 390.3
quenching of the intensity signal by anti-fluorescein antibody ([1]; not represented in Table 48): 95%
Agglutination by avidin beads ([2]; Chase format): −
Agglutination by avidin beads ([2]; Premix format): −
Agglutination by avidin beads ([2]; Wash + Chase format): −
Agglutination ([2]; avidin beads loaded with compound): −
ELISA absorbency at 410 nm ([3]; Anti-PMB test antibody, Avidin coated wells, maximally diluted sample): 0.033
ELISA absorbency at 410 nm ([3]; Anti-PMB, PBS coated wells): 0.016
ELISA absorbency at 410 nm ([3]; Preimmune, Avidin coated wells): 0.010
ELISA absorbency at 410 nm ([3]; Preimmune, PBS coated wells): 0.020
mP ([4]; E. coli (2.7 × 10^8 bacteria) & PMB-Cys-Mal-Fl): 256.8
mP ([4]; PMB-Cys-Mal-Fl (10^−8 M) alone): 57.3
MIC [5]: 0.8 µg/mL
% Macrophage with phagocytosed bacteria ([6]; Table 59, 0.5 ug/ml then 10 ug/ml anti-fluorescein antibody (chase)): 40%
% Macrophage with phagocytosed bacteria ([6]; Table 59, 0.5 ug/ml with 10 ug/ml anti-fluorescein antibody (premix)): 29%
% Macrophage with phagocytosed bacteria ([6]; Table 59, opsonin alone): 15%
Recovered bacterial colonies ([6]; Table 59, opsonin alone): 29
Recovered bacterial colonies ([6]; Table 59, then anti-fluorescein antibody (chase)): 76
Recovered bacterial colonies ([6]; Table 59, with anti-fluorescein antibody (premix)): 52
% Macrophage with phagocytosed bacteria ([6]; Table 60, 1×10^8 J5 bacteria opsonized, from 100 macrophage examined, conjugates 0.5 ug/ml, anti-avidin 1/500, anti-fluorescein antibody 25 ug/ml): 5%
% Macrophage with phagocytosed bacteria ([6]; Table 61 (repeat assay), 1×10^8 J5 bacteria opsonized, from 100 macrophage examined, conjugates 0.5 ug/ml, anti-avidin 1/400, anti-fluorescein antibody 14 ug/ml): 8%
enhancement of phagocytosis (in words) ([6]; with anti-fluorescein antibody): Clear elevation of phagocytosis
FLUORESCENCE of coated bacteria [7]: 40 AFU
FLUORESCENCE of coated bacteria [8]: 5 AFU
MIC ([9]; Table 40, first number of the cell): 0.9 µg/mL
MIC ([9]; Table 44): 1 µg/mL
ELISA titer ([10]; 2 × 10^5 bacteria): 0.005
ELISA titer ([10]; 2 × 10^6 bacteria): 0.162
Agglutination [11]: −
Agglutination [12]: −
Agglutination [13]: −

Reference: US6579696B1, “Polymyxin B conjugates” (priority 1992, dated 2003)
